# Patent publication US10555987B2, “GHRH agonists for the treatment of ischemic disorders” (UNIVERSITY OF MIAMI, priority 2012, dated 2020)
# Entries after “also recorded” stand apart in the source; their conditions may differ. Marks after values point to notes of the source that are not given here. Non-standard residues stand in square brackets, D forms with d. Residues, ends and D or L forms follow the SMILES beside them. *: point of attachment. Phe(F5) = N[C@@H](Cc1c(F)c(F)c(F)c(F)c1F)C(=O)O; Desaminotyrosyl = O=C(CCc1ccc(O)cc1)*; NMeY = CN[C@@H](Cc1ccc(O)cc1)C(=O)O; Agmatine = N=C(N)NCCCCN*; Nle = CCCC[C@H](N)C(=O)O; Orn = NCCC[C@H](N)C(=O)O; Abu = CC[C@H](N)C(=O)O; GABA = NCCCC(=O)O
# How the values were obtained:
# [1] = system: myocardial infarction (Fisher-344 rats); test: Morphometric analysis of infarct size, rat MI model (Example 13); format: in vivo; settings: 50 μg/kg s.c. twice daily for 4 weeks; mean ± SEM
# Method: (§1) Myocardial infarction (MI) was induced by permanent ligation of the left coronary artery in female 6-month-old Fisher-344 rats. Animals were randomly assigned to receive placebo (DMSO+propylene glycol) or one of the GHRH-agonists (JI-38, MR-356/P-20356, MR-409/P-27409, all 50 μg/kg), starting 4 weeks post-MI. All treatment was given subcutaneously twice daily for 4 weeks.
# Rat hearts were processed using routine histological procedures. Samples were fixed in formalin.
# (§2) Paraffin sections were deparaffinized and rehydrated by immersion in xylene followed by a graded series of ethanol. Antigen retrieval was performed by a heat-induced method with citrate buffer (Dako, Carpinteria, Calif.). After blocking with 10% normal donkey serum, sections were incubated with a primary antibody at 37° C. for 1 hour, followed by application of secondary antibody. Omission of the primary antibodies on parallel sections was used as negative control. Nuclei were counterstained with DAPI (Invitrogen, Carlsbad, Calif.). The total numbers of positively-stained cells (c-kit, CD45, phospho-histone H3 [pH3]) were quantified per slide to calculate the number of cells per section on each sample. Morphometric analysis was performed using Adobe Photoshop CS3 (San Jose, Calif.).
# [2] = system: myocardial infarction (Fisher-344 rats); test: Immunostaining of heart tissue (pH3, c-kit, arterioles), rat MI model (Example 13); format: in vivo; settings: for c-kit (positive cells in the heart) / phospho H3 (positive cells in the heart): 50 μg/kg s.c. twice daily for 4 weeks, mean ± SEM; for number of arterioles: isolectin / SMA22a co-staining of heart sections
# Method: as §1, §2
# Heart sections were co-stained with isolectin (endothelial cell marker) and vascular smooth muscle (SMA22a) to identify arterioles which play a crucial role in cardiac repair. […] An inverse correlation between number of arterioles and infarct size was observed (FIG. 5C).
# GH release [3] = test: GH releasing potency in vivo, subcutaneous administration (Example 14, Table 12); design: species or system rat; settings: for Serum GH level at selected time after injection (ng/ml), 0 min / Serum GH level at selected time after injection (ng/ml), 15 min / Serum GH level at selected time after injection (ng/ml), 30 min: male rats, dose 3 μg/kg, mean ± SEM
# In short: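 Potency is expressed relative to GHRH(1-29)NH2 and JI-38 (each = 1), via equivalent GHRH(1-29)NH2 dose read from a standard curve. Peptides in 5% mannitol given i.v. or s.c. to anaesthetised male Sprague-Dawley rats (200-250 g); serum GH measured by ELISA at selected times.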
# [4] = system: myocardial infarction (Fischer 344 rats); test: Morphometric analysis, percentage of infarcted myocardium (Example 14); format: in vivo, rat; settings: vs. placebo, FIG. 8
# Method: MI was induced in female 6-month-old Fischer 344 rats by permanent ligation of left ventricular (LV) anterior descending coronary artery. Animals were randomly assigned to receive placebo or one of the following GHRH agonists (MR-356, MR-361, MR-367, MR-403, MR-404, MR-409 and MR-502) starting 2 hours post-surgery. All treatment (50 μg/kg) was given subcutaneously twice daily for 4 weeks. The Institutional Animal Care and Use committee of the University of Miami approved all protocols and experimental procedures.
# Slides were prepared with H&E and Masson's trichrome stain to assess cardiac structure and the presence and extent of myocardial scar, respectively. The percentage of infarcted myocardium was calculated.
# GHRH receptor = target: T1, GHRH receptor (Homo sapiens, UniProt Q02643); test: GHRH receptor binding, competition with 125I-labeled JV-1-42, human pituitary membrane homogenates (Table 5); design: Normal human pituitaries were purchased from the National Hormone and Peptide Program; tissue National Hormone and Peptide Program (A.F. Parlow, Harbor-UCLA Medical Center, Torrance, Calif.); host or cells: normal human pituitary, membrane fraction; settings: for Relative affinity (Binding potency) vs GHRH: GHRH(1-29) = 1, Table 5; for Relative affinity (Binding potency) vs JI-38: JI-38 = 1, Table 5
# T1 sequence (Q02643 23-423): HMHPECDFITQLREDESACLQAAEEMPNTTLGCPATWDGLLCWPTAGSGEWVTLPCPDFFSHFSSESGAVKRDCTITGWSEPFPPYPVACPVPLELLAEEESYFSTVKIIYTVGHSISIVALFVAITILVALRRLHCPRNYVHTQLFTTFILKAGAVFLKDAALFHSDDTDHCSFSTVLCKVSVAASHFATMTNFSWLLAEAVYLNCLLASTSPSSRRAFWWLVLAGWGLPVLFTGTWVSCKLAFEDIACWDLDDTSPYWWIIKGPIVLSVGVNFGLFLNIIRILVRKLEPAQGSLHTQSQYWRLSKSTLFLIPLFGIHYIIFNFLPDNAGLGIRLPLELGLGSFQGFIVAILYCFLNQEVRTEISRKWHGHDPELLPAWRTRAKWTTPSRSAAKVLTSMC
# Method: Normal human pituitaries were purchased from the National Hormone and Peptide Program (A.F. Parlow, Los Angeles, County Harbor-UCLA Medical Center, Torrance, Calif.). Briefly, in competitive binding analysis, ^125I-labeled JV-1-42 ([…]) was displaced by GHRH agonists at 10^−6 to 10^−12 M.
# The final binding affinities were expressed as IC50 values and were calculated by using the LIGAND PC computerized curve-fitting program of Munson and Rodbard as modified by McPherson.
# GH release [5] = test: In vivo endocrine activity, GH release after subcutaneous administration (Table 9); settings: rat; for Stimulation of growth hormone levels after subcutaneous administration (in words): s.c.; for GH releasing potency relative to JI-38 (=1): subcutaneous (s.c.) injection
# Method: Subcutaneous Administration. Adult male rats were used and anesthetized with pentobarbital (6 mg/100 g, b.w.), by i.p. injection. […] Blood samples were taken from the jugular vein 5, 15 and/or 30 minutes after the injection. The blood samples were centrifuged, plasma was removed and the GH level was measured byELISA. The results are summarized in terms of potency in Table 9.
Compound,MI size (%) [1],c-kit (positive cells in the heart) [2],phospho H3 (positive cells in the heart) [2],number of arterioles [2],"Serum GH level at selected time after injection (ng/ml), 0 min (GH release [3]; s.c.)","Serum GH level at selected time after injection (ng/ml), 15 min (GH release [3]; s.c.)","Serum GH level at selected time after injection (ng/ml), 30 min (GH release [3]; s.c.)","Relative potency compared to GHRH(1-29), 15 min (GH release [3]; s.c.)","Relative potency compared to JI-38, 15 min (GH release [3]; s.c.)","Relative potency compared to GHRH(1-29), 30 min (GH release [3]; s.c.)","Relative potency compared to JI-38, 30 min (GH release [3]; s.c.)",Relative affinity (Binding potency) vs GHRH (GHRH receptor),Relative affinity (Binding potency) vs JI-38 (GHRH receptor),Stimulation of growth hormone levels after subcutaneous administration (in words) (GH release [5]),GH releasing potency relative to JI-38 (=1) (GH release [5]; 15 min after),GH releasing potency relative to JI-38 (=1) (GH release [5]; 30 min after),further results
"CCCC[C@H](NC(=O)[C@@H](NC(=O)[C@H](CC(=O)O)NC(=O)[C@H](CCC(N)=O)NC(=O)[C@H](CC(C)C)NC(=O)[C@H](CC(C)C)NC(=O)[C@H](CCCN)NC(=O)[C@H](CCCNC(=N)N)NC(=O)[C@H](C)NC(=O)[C@H](CO)NC(=O)[C@H](CC(C)C)NC(=O)[C@H](CCC(N)=O)NC(=O)[C@H](CC)NC(=O)[C@H](CC(C)C)NC(=O)[C@@H](NC(=O)[C@H](CCCN)NC(=O)[C@H](CCCNC(=N)N)NC(=O)[C@H](Cc1ccc(O)cc1)NC(=O)[C@H](CO)NC(=O)[C@H](CCC(N)=O)NC(=O)[C@@H](NC(=O)[C@H](Cc1ccccc1)NC(=O)[C@@H](NC(=O)[C@H](C)NC(=O)[C@H](CC(=O)O)NC(=O)[C@H](C)NC(=O)CCc1ccc(O)cc1)[C@@H](C)CC)[C@@H](C)O)C(C)C)[C@@H](C)CC)C(=O)N[C@@H](CC(=O)O)C(=O)NCCCCNC(=N)N [JI-38, [Dat^1, Gln^8, Orn^12,21, Abu^15, Nle^27, Asp^28, Agm^29]hGHRH(1-29)NH2, reference compound] (Desaminotyrosyl-ADAIFTQSYR[Orn]VL[Abu]QLSAR[Orn]LLQDI[Nle]D-Agmatine)",42 ± 1.3 %,53 ± 6.7,71 ± 9.2,significantly increased,33.2 ± 2.8 ng/mL,230.0 ± 15.1 ng/mL,128.7 ± 13.3 ng/mL,63.1,1.00,111.8,1.00,2.4,1,,,,"infarct size (MI %) [4]: significantly attenuated; also recorded: substantial reductions; IC50 (GHRH receptor; 125I-JV-1-42, human pituitary membranes, Table 5): 1.71 nM"
"CCCC[C@H](NC(=O)[C@@H](NC(=O)[C@H](CC(=O)O)NC(=O)[C@H](CCC(N)=O)NC(=O)[C@H](CC(C)C)NC(=O)[C@H](CC(C)C)NC(=O)[C@H](CCCN)NC(=O)[C@H](CCCNC(=N)N)NC(=O)[C@H](C)NC(=O)[C@H](CO)NC(=O)[C@H](CC(C)C)NC(=O)[C@H](CCC(N)=O)NC(=O)[C@H](CC)NC(=O)[C@H](CC(C)C)NC(=O)[C@@H](NC(=O)[C@H](CCCN)NC(=O)[C@H](CCCNC(=N)N)NC(=O)[C@H](Cc1ccc(O)cc1)NC(=O)[C@H](CO)NC(=O)[C@H](CC(N)=O)NC(=O)[C@@H](NC(=O)[C@H](Cc1c(F)c(F)c(F)c(F)c1F)NC(=O)[C@@H](NC(=O)[C@H](C)NC(=O)[C@H](CC(=O)O)NC(=O)[C@@H](C)NC(=O)CCc1ccc(O)cc1)[C@@H](C)CC)[C@@H](C)O)C(C)C)[C@@H](C)CC)C(=O)N[C@@H](CO)C(=O)N[C@@H](CCCNC(=N)N)C(=O)NCCCC(N)=O [Peptide P-25502, [Dat^1, D-Ala^2, Fpa5^6, Orn^12, Abu^15, Orn^21, Nle^27, Gab^30]hGHRH(1-30)NH2] (Desaminotyrosyl-[dA]DAI[Phe(F5)]TNSYR[Orn]VL[Abu]QLSAR[Orn]LLQDI[Nle]SR[GABA]-NH2)",,,,,61.7 ± 8.1 ng/mL,266.7 ± 21^ ng/ml,153.2 ± 33.3 ng/mL,76.5,1.21,152.3,1.36,58.0,24.4,stimulated greater growth hormone levels than hGHRH or JI-38,1.10,0.94,"potency as compared to JI-38 in both i.v. and s.c. tests (GH release [3]; both i.v. and s.c. tests): increased potency as compared to JI-38; Relative GH-releasing potency compared to JI-38 in s.c. tests (fold, range over time points) (GH release [3]; s.c., time not specified, listed as MR-502): 1.2-1.4"
"CCCC[C@H](NC(=O)[C@@H](NC(=O)[C@H](CC(=O)O)NC(=O)[C@H](CCC(N)=O)NC(=O)[C@H](CC(C)C)NC(=O)[C@H](CC(C)C)NC(=O)[C@H](CCCN)NC(=O)[C@H](CCCNC(=N)N)NC(=O)[C@H](C)NC(=O)[C@H](CO)NC(=O)[C@H](CC(C)C)NC(=O)[C@H](CCC(N)=O)NC(=O)[C@H](CC)NC(=O)[C@H](CC(C)C)NC(=O)[C@@H](NC(=O)[C@H](CCCN)NC(=O)[C@H](CCCNC(=N)N)NC(=O)[C@H](Cc1ccc(O)cc1)NC(=O)[C@H](CO)NC(=O)[C@H](CC(N)=O)NC(=O)[C@@H](NC(=O)[C@H](Cc1ccccc1)NC(=O)[C@@H](NC(=O)[C@H](C)NC(=O)[C@H](CC(=O)O)NC(=O)[C@@H](C)NC(=O)[C@H](Cc1ccc(O)cc1)NC)[C@@H](C)CC)[C@@H](C)O)C(C)C)[C@@H](C)CC)C(=O)N[C@@H](CC(=O)O)C(=O)N[C@@H](CCCNC(=N)N)C(=O)NC [Peptide P-27409, [N—Me-Tyr^1, D-Ala^2, Orn^12, Abu^15, Orn^21, Nle^27, Asp^28]hGHRH(1-29)NH—CH3] (H-[NMeY][dA]DAIFTNSYR[Orn]VL[Abu]QLSAR[Orn]LLQDI[Nle]DR-NHMe)",42 ± 1.9 %,68 ± 5.5,47 ± 5.8,significantly increased,18.9 ± 3.1 ng/mL,427.4 ± 62.4 ng/mL,256.7 ± 20.7 ng/mL,141.3,2.24*,380.6,,,,stimulated greater growth hormone levels than hGHRH or JI-38,1.47,1.31,GH-releasing potency after s.c. administration (in words) (GH release [3]; s.c.): significantly higher potencies at 30 minutes than at 15 minutes; infarct size (MI %) ([4]; listed as MR-409): significantly attenuated; also recorded: substantial reductions
